Laboratory results as given in patent US7189391B2, “Method of in vitro preconditioning healthy donor's myoblasts before transplantation thereof in compatible patients suffering of myopathies like muscular dystrophy, for improving transplantation success” (Université Laval, priority 1996, dated 2007).

Columns and labels:
[1] = system: primary cultures of myoblasts; experiment: Transplantation of TnI-βGal myoblasts cultured with phorbol ester (TPA); format: in vivo, mouse; conditions: TPA 100 ng/ml, 2 days culture, n=5 mice
Protocol: Imm 7 neo: expresses neomycin. Imm 7 Matrilysine: expresses neomycin and matrilysine. Tn I βgal: untreated transgenic mouse myoblasts expressing β-Gal. Tn I βGal+TPA: transgenic mouse myoblasts/β-Gal treated with phorbol ester.
Second experiment: primary cultures of myoblasts were obtained from transgenic mice (TnI-βGal+TPA). Myoblasts were cultured for two (2) days in the presence of phorbol ester (TPA 100 ng/ml) which also stimulates the expression metalloproteases.

[2] = system: primary myoblast cultures; experiment: Effects of bFGF on primary myoblast culture (cell count, desmin staining); format: cell-based, mouse
Source text: Primary myoblast cultures were established from muscle biopsies of newborn transgenic mice^26. The founder mouse (TnI Lac Z1/29) was provided by Dr. Hasting (McGill University, Montreal, Canada) onto the CD1 background and was reproduced in our laboratory. This transgenic mouse expresses the β-galactosidase gene under the control of the promoter of the quail fast skeletal muscle troponin I gene^16. […] Before starting myoblast cultures, it was necessary to identify transgenic newborns by X-gal staining of a small muscle biopsy because heterozygote transgenic mice were used as parents. Myogenic cells were released from skeletal muscle fragments of the transgenic newborns by serial enzyme treatments. First, a one hour digestion was done with 600 U/ml collagenase (Sigma, St. Louis, Mo., USA). This was followed by a 30 minute incubation in Hanck's balanced salt solution (HBSS) containing 0.1% w/v trypsin (Gibco Lab, Grand Island, N.Y., USA). Satellite cells were placed in 75 cm^2 culture flasks (Coster, Cambridge, Mass., USA) in proliferating medium, i.e. 199 medium (Gibco Lab.) with 15% fetal bovine serum (Gibco Lab.), 1% penicillin (10,000 U/ml) and 1% streptomycin (10,000 U/ml).
One day after starting culture, the culture medium of some flasks was replaced by medium containing 100 ng/ml human recombinant bFGF (Sigma). Three days after starting culture, myoblasts were detached from the flasks with 0.1% trypsin followed by three suspensions in HBSS and centrifugations (6500 RPM, 5 minutes). The final cell pellet was diluted in only 40 μl of HBSS.
The primary cultures were washed with PBS and fixed with 100% methanol at −4° C. They were then washed again 3 times with PBS and incubated 1 hr with a mAb anti-human desmin (Dako, Copenhagen, Denmark) diluted 1/50 with PBS containing 1% blocking serum (i.e. 0.33% rabbit serum, 0.33% horse serum and 0.33 fetal calf serum). They were washed 3 times with PBS with 1% blocking serum and incubated 1 hr with a 1/100 dilution (in PBS with 1% blocking serum) of a rabbit anti-mouse immunoglobulin (Dako).
To try to understand the beneficial effects of bFGF on myoblast transplantation, we examined the effect of a short stimulation (2 days) with 100 ng/ml bFGF on primary myoblast cultures. The total number of cells in each flask was not significant different (31.9±6.8×10^6 with bFGF n=5, 30.0±5.8×10^6 without FGF n=9, unpaired t-test: p=0.573). […] In these cultures, there was no difference in the percentage of myogenic nuclei (nuclei in myoblasts and in myotubes) between the two groups of cultures (Table 3, line 1). More myogenic cells were however fused in the absence of bFGF (Table 3, line 2). There was an higher percentage of the total nuclei (including myoblasts, myotubes and fibroblasts) which were myoblast nuclei in cultures containing bFGF (Table 3, line 3). The increase of myoblasts was more clear when the percentage of myoblasts was calculated among mononuclear cells (excluding the myotubes) (Table 3, lines 4 and 5). This was however only a 35% increase.

mdx mice [3] = experiment: Intramuscular injections of bFGF after myoblast transplantation in mdx mice; format: in vivo, mouse; conditions: intramuscular injections of bFGF vs HBSS control
Protocol: (§1) The mdx mice were divided in three groups. Six mdx mice of one group were grafted in both tibialis anterior (TA) muscles: myoblasts grown with bFGF were injected in the left TA and myoblasts grown without bFGF were injected in the right TA. Myoblasts grown without bFGF were injected in only the left TA of six other mdx mice. These six mdx mice were then injected intramuscularly four times (after grafting 0, +1, +4 and +6 days) either with 10 μl of bFGF (100 ng/ml, 3 mice) or with 10 μl of HBSS (3 mice). The last five mice were grafted in both TA muscle with normal CD1 mouse myoblasts infected with replication defective retroviral vector LNPOZC7 (gift from Dr C. Cepko, Harvard, Boston, Mass.) which contains the LacZ gene. The left TA muscles were injected with 4 million myoblasts grown with bFGF, while the right TA muscles were injected with 4 million myoblasts grown without bFGF. Three days after grafting, these 5 mice were sacrificed to detect the number of β-galactosidase positive cells which survived in each TA muscle. The numbers of β-galactosidase positive cells were counted in 8 μm sections obtained at every 160 μm throughout the muscle. The total number of cells counted was multiplied by 20 to obtain an estimate of the number of surviving cells and a correction was made to account for the percentage of unlabelled cells in cultures with and without bFGF. […]

mdx mice [4] = experiment: Survival of retrovirally labelled myoblasts 3 days after transplantation in TA muscle; format: in vivo, mouse; conditions: myoblasts grown with bFGF, 4×10^6 cells injected
Protocol: as §1

myoblasts = experiment: Migration of transplanted myoblasts cultured with concanavalin A, anterior tibialis muscle of mice; format: in vivo, mouse; conditions: CMVLacZ myoblasts cultured 2 days with 20 μg/ml concanavalin A
Protocol: Myoblasts infected with a retrovirus expressing a beta-galactosidase gene have been cultured for four days in the presence or absence of 20 μg/ml concanavalin A, a lectine which stimulates the expression of metalloproteases. These myoblasts were then injected in one single site of the anterior tibialis muscle of eight mice, in order to verify the degree with which the transplanted cells are capable of migrating through the recipient tissue. After thirty days, mice were sacrificed and the muscle tissue was harvested, frozen and 10 μm thick slices were mounted on slides. […] Therefore, the presence of metalloproteases in the preconditioning medium or during the transplantation is beneficial to the spreading of the transplanted cells from the site of the injection through the recipient muscle tissue.
First experiment: Myoblasts obtained from CMVLacZ mice (expressing a Beta-galactosidase gene) were cultured for two (2) days in the presence of twenty (20) μg/ml concanavalin A, a lectine which stimulates the expression of metalloproteases. When these myoblasts were injected in the anterior tibialis muscle of recipient mice, the migration of transplanted cells was increased by three (3) fold comparatively to myoblasts having not received the concanavalin treatment.

[5] = with bFGF 100 ng/ml, 2 days, mean ± SD

In the case of `CCCCCCCCCCCCCC(=O)O[C@@H]1[C@@H](C)[C@@]2(O)[C@@H](C=C(CO)C[C@]3(O)C(=O)C(C)=C[C@@H]23)[C@@H]2C(C)(C)[C@]12OC(C)=O` [TPA, phorbol ester], the “area of generated fibers vs non-treated preparation” value [1] is reported as “four fold greater” and the “fibers generated vs non-treated preparation” value [1] is reported as “four times more fibers”.

With basic fibroblast growth factor [bFGF] the “total number of cells in each flask” value ([2]; 2 days with 100 ng/ml bFGF, n=5) was 31.9±6.8×10^6, the “increase of the percentage of myoblasts among mononuclear cells” value ([2]; 2 days with bFGF vs without) was 35% and the “% myoblast nuclei relative to non myotube nuclei” value [2, 5] was 32.2 ± 4.1%. For the same compound, the “% myoblast nuclei relative to total nuclei” value [2, 5] was 30.9 ± 3.8%, the “% of myoblast and myotube nucleic relative to total nuclei” value [2, 5] was 35.1 ± 4.8% and the “% of myotube nuclei relative to total myotube and myoblast nuclei” value [2, 5] was 11.5 ± 6.6%. The “% of non-myoblast nuclei relative to non myotube nuclei” value [2, 5] was 67.8 ± 4.1%, the “difference in the percentage of hybrid or donor muscle fibers vs HBSS injections” value (mdx mice [3]) was “No significant difference” and the “number of β-galactosidase positive cells 3 days after transplantation” value (mdx mice [4]; left TA muscles, 5 mice) was 3.29±1.54×10^5 cells. For the same compound, the “% of the injected cells surviving at 3 days” value (mdx mice [4]) was 8.2%.

In the case of concanavalin A, the “increase of migration of transplanted cells vs untreated myoblasts” value (myoblasts) is reported as 3 fold.
